Article PMC9352230 (ACS Omega, 2022)

Assays:
[1] = system: MCF7 (human breast cancer cell line); assay: MTT cytotoxicity assay, MCF7; format: cell-based; settings: MCF7, 24 h, read-out: MCF7 (% inhibition ±SD)
ENPP1 = target: T1, ENPP1 (Homo sapiens, UniProt P22413); assay: ENPP1 enzyme inhibition assay; format: biochemical; settings: for inhibition at 100 µM: read-out: ENPP1 % inhibition ± SD
T1 sequence (P22413 1-925): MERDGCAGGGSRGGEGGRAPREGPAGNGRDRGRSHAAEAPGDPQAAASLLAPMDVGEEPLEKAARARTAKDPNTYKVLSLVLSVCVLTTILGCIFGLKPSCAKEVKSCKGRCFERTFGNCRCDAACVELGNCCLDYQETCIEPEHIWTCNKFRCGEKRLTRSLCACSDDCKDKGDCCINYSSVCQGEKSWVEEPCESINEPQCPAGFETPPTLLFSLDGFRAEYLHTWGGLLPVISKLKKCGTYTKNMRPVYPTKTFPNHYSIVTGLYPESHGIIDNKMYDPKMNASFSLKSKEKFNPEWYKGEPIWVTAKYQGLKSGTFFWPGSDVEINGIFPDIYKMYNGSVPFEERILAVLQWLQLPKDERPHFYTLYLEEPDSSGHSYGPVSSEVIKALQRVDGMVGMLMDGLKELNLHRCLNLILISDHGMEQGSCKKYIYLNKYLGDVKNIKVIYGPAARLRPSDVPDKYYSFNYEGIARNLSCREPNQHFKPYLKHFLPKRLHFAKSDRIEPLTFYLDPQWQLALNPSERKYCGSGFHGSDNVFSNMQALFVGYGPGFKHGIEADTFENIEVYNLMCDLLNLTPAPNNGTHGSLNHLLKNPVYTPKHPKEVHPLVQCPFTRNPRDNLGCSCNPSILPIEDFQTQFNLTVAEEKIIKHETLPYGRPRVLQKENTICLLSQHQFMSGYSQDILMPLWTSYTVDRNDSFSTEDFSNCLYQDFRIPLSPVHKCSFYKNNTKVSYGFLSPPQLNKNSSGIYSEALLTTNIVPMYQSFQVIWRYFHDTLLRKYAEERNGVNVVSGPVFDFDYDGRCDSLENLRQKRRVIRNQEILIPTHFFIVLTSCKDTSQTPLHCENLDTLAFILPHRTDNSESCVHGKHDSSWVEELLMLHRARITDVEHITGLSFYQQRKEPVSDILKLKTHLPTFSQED

[2] = system: HEK293 (human embryonic kidney cell line); assay: MTT cytotoxicity assay, HEK293; format: cell-based; settings: Homo sapiens, HEK293, 24 h, read-out: HEK293 (% inhibition ±SD)
ENPP3 = target: T2, ENPP3 (Homo sapiens, UniProt O14638); assay: ENPP3 enzyme inhibition assay; format: biochemical; settings: for inhibition at 100 µM: read-out: ENPP3 % inhibition ± SD
T2 sequence (O14638 1-875): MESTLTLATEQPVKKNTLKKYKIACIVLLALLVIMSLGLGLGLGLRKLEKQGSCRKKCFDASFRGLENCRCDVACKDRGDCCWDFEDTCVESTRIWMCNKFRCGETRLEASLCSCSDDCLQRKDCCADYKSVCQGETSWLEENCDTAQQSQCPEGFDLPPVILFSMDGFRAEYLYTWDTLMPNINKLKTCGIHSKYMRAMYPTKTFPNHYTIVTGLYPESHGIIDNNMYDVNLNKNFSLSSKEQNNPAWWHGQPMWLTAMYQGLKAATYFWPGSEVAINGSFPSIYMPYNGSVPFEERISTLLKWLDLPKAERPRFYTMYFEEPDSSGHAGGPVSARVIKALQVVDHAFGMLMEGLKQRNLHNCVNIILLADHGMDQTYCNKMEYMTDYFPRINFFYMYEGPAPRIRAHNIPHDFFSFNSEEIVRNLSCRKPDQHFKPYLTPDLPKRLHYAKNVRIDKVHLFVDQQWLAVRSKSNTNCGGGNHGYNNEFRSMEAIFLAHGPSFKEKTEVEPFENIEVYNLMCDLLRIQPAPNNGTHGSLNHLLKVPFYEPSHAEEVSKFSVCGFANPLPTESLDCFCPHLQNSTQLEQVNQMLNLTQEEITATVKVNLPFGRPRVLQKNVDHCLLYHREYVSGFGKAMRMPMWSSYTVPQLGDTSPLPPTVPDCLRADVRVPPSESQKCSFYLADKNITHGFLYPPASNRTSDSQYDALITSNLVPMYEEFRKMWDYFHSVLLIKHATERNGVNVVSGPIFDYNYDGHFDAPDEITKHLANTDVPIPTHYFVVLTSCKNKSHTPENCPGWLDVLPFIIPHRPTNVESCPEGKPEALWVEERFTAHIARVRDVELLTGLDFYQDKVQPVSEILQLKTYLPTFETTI

Row | Structure (SMILES) | IC50 (ENPP1) [nM] | IC50 (ENPP3) [nM] | inhibition at 100 µM (ENPP1) [%] | inhibition at 100 µM (ENPP3) [%] | inhibition at 100 µM [1] [%] | inhibition at 100 µM [2] [%]
1 | Cc1ccc(C(=O)Nc2ccc(OS(=O)(=O)c3ccc(I)cc3)cc2)cc1 [4c, 4-(4-methylbenzamido)phenyl 4-Iodobenzenesulfonate] | 14400 ± 540 | 4230 ± 380 | – | – | 33.2 ± 1.32 | 15.2 ± 0.83
2 | O=C(Nc1ccc(OS(=O)(=O)c2ccc(OC(F)(F)F)cc2)cc1)c1ccccc1 [4t, 4-Benzamidophenyl 4-(trifluoromethoxy)benzenesulfonate] | – | 150 ± 40 | 41.4 ± 3.24 | – | 29.6 ± 1.22 | 8.6 ± 0.14
3 | O=C(Nc1ccc(OS(=O)(=O)c2cccc3cccnc23)cc1)c1ccccc1 [4q, 4-Benzamidophenyl Quinoline-8-sulfonate] | 370 ± 30 | – | – | 19.5 ± 3.53 | 11.2 ± 1.04 | 4.6 ± 0.32
4 | Cc1ccc(C(=O)Nc2ccc(OS(=O)(=O)Cc3ccccc3)cc2)cc1 [4i, 4-(4-Methylbenzamido)phenyl Phenylmethanesulfonate] | 130 ± 10 | – | – | 46.7 ± 1.54 | 5.7 ± 0.06 | 11.2 ± 0.92
5 | O=C(Nc1ccc(OS(=O)(=O)c2ccc(F)cc2)cc1)c1ccccc1 [4s, 4-Benzamidophenyl 4-Fluorobenzenesulfonate] | 5760 ± 570 | 2950 ± 250 | – | – | 2.1 ± 0.08 | 20.6 ± 1.14
6 | COc1ccc(S(=O)(=O)Oc2ccc(NC(=O)c3ccccc3)cc2)cc1 [4m, 4-Benzamidophenyl 4-Methoxybenzenesulfonate] | 820 ± 50 | – | – | 22.6 ± 2.12 | 4.1 ± 0.01 | 2.3 ± 1.12
7 | COc1ccc(S(=O)(=O)Oc2ccc(NC(=O)c3ccc(C)cc3)cc2)cc1 [4d, 4-(4-Methylbenzamido)phenyl 4-Methoxybenzenesulfonate] | 180 ± 10 | – | – | 45.7 ± 2.35 | 31.5 ± 2.43 | 13.1 ± 0.73
8 | COc1cccc2c1C(=O)c1c(O)c3c(c(O)c1C2=O)C[C@@](O)(C(=O)CO)C[C@@H]3O[C@H]1C[C@H](N)[C@H](O)[C@H](C)O1 [doxorubicin, reference compound] | – | – | – | – | 88.8 ± 2.74 | –
9 | CCCc1ccc(S(=O)(=O)Oc2ccc(NC(=O)c3ccccc3)cc2)cc1 [4o, 4-Benzamidophenyl 4-Propylbenzenesulfonate] | 1710 ± 40 | 2120 ± 80 | – | – | 63.2 ± 2.51 | 12.6 ± 0.74
10 | CC1(C(=O)Nc2ccc(OS(=O)(=O)c3ccccc3F)cc2)c2ccccc2-c2ccccc21 [7a, 4-(9-Methyl-9H-fluorene-9-carboxamido)phenyl 2-Fluorobenzenesulfonate] | 810 ± 50 | – | – | 28.2 ± 3.22 | 12.7 ± 0.62 | 14.6 ± 1.12
11 | Cc1ccc(C(=O)Nc2ccc(OS(=O)(=O)c3ccc(F)cc3)cc2)cc1 [4k, 4-(4-Methylbenzamido)phenyl 4-Fluorobenzenesulfonate] | 7610 ± 20 | 370 ± 80 | – | – | 11.2 ± 0.52 | 2.1 ± 1.22
12 | Cc1ccc(C(=O)Nc2ccc(OS(=O)(=O)c3ccc(-c4ccccc4)cc3)cc2)cc1 [4h, 4-(4-Methylbenzamido)phenyl [1,1′-Biphenyl]-4-sulfonate] | 1730 ± 30 | – | – | 27.1 ± 4.54 | 9.1 ± 0.71 | 4.8 ± 0.24
13 | Cc1ccc(C(=O)Nc2ccc(OS(=O)(=O)c3ccc(C)cc3)cc2)cc1 [4a, 4-(4-Methylbenzamido)phenyl 4-Methylbenzenesulfonate] | – | – | 26.2 ± 2.11 | 17 ± 3.24 | 1.1 ± 0.12 | 5.3 ± 0.81
14 | CC1(C(=O)Nc2ccc(OS(=O)(=O)c3ccc(F)cc3)cc2)c2ccccc2-c2ccccc21 [7c, 4-(9-Methyl-9H-fluorene-9-carboxamido)phenyl 4-Fluorobenzenesulfonate] | 500 ± 30 | 6690 ± 1890 | – | – | 12.4 ± 1.22 | 9.2 ± 0.42
15 | Cc1ccc(C(=O)Nc2ccc(OS(=O)(=O)c3ccccc3F)cc2)cc1 [4l, 4-(4-Methylbenzamido)phenyl 2-Fluorobenzenesulfonate] | 150 ± 10 | 3480 ± 340 | – | – | 0.5 ± 0.03 | 17.4 ± 0.83
16 | CC1(C(=O)Nc2ccc(OS(=O)(=O)c3ccccc3)cc2)c2ccccc2-c2ccccc21 [7f, 4-(9-Methyl-9H-fluorene-9-carboxamido)phenyl Benzenesulfonate] | 8450 ± 250 | – | – | 42.1 ± 2.44 | 5.6 ± 1.11 | 6.2 ± 1.17

More lines, main results first:

Row | IC50 (ENPP1) [nM] | IC50 (ENPP3) [nM] | inhibition at 100 µM (ENPP1) [%] | inhibition at 100 µM (ENPP3) [%] | Structure (SMILES) | inhibition at 100 µM [1] [%] | inhibition at 100 µM [2] [%]
17 | 3960 ± 120 | 4120 ± 50 | – | – | O=C(Nc1ccc(OS(=O)(=O)Cc2ccccc2)cc1)c1ccccc1 [4n, 4-Benzamidophenyl Phenylmethanesulfonate] | 7.3 ± 0.03 | 5.8 ± 0.23
18 | – | – | – | 8.4 ± 3.11 | CCCc1ccc(S(=O)(=O)Oc2ccc(NC(=O)c3ccc(C)cc3)cc2)cc1 [4f, 4-(4-Methylbenzamido)phenyl 4-Propylbenzenesulfonate] | 25.7 ± 0.92 | 4.2 ± 0.12
19 | 450 ± 70 | 190 ± 20 | – | – | Cc1ccc(C(=O)Nc2ccc(OS(=O)(=O)c3ccc(OC(F)(F)F)cc3)cc2)cc1 [4g, 4-(4-Methylbenzamido)phenyl 4-(Trifluoromethoxy)benzenesulfonate] | 11.7 ± 0.84 | 3.2 ± 0.11
20 | – | 160 ± 10 | 9.2 ± 4.13 | – | CC1(C(=O)Nc2ccc(OS(C)(=O)=O)cc2)c2ccccc2-c2ccccc21 [7d, 4-(9-Methyl-9H-fluorene-9-carboxamido)phenyl Methanesulfonate] | 0.2 ± 0.06 | 5.5 ± 0.36
21 | 900 ± 160 | 4160 ± 220 | – | – | CC1(C(=O)Nc2ccc(OS(=O)(=O)C(F)(F)F)cc2)c2ccccc2-c2ccccc21 [7b, 4-(9-Methyl-9H-fluorene-9-carboxamido)phenyl Trifluoromethanesulfonate] | 14.1 ± 0.63 | 24.5 ± 1.16
22 | 2010 ± 340 | 530 ± 190 | – | – | O=C(Nc1ccc(OS(=O)(=O)c2ccc(I)cc2)cc1)c1ccccc1 [4r, 4-Benzamidophenyl 4-Iodobenzenesulfonate] | 10.2 ± 0.86 | 11.3 ± 0.71
23 | – | 29800 ± 2130 | 45.2 ± 1.53 | – | Cc1ccc(C(=O)Nc2ccc(OS(=O)(=O)c3ccccc3)cc2)cc1 [4b, 4-(4-methylbenzamido)phenyl Benzenesulfonate] | 7.4 ± 0.04 | 6.4 ± 0.22
24 | – | 820 ± 120 | 44.8 ± 1.52 | – | Cc1ccc(C(=O)Nc2ccc(OS(=O)(=O)c3ccc(Cl)cc3)cc2)cc1 [4e, 4-(4-Methylbenzamido)phenyl 4-Chlorobenzenesulfonate] | 24.2 ± 1.73 | 8.3 ± 0.35
25 | 1510 ± 20 | – | – | 33.5 ± 1.92 | O=C(Nc1ccc(OS(=O)(=O)c2ccc(-c3ccccc3)cc2)cc1)c1ccccc1 [4p, 4-Benzamidophenyl [1,1′-Biphenyl]-4-sulfonate] | 8.4 ± 0.75 | 4.3 ± 0.15
